Active and inactive are the calls of the source. The calls are words filed in the database; no cut-off is given here.
What was measured:
Rattus norvegicus [1] = assay: Procognitive activity in Wistar rat assessed as reversal of time delay induced-memory deficit at 3 mg/kg, po by object recognition test; type: functional, organism-based; set-up: dose 3 mg/kg
[2] = target: 5-hydroxytryptamine receptor 2A (Homo sapiens, UniProt P28223); assay: Binding affinity to 5HT2A receptor
[3] = Half life in Wistar rat at 10 mg/kg, iv; type: ADME, organism-based; set-up: dose 10 mg/kg, route intravenous; conditions: in vivo
[4] = Oral bioavailability in fasted Wistar rat at 10 mg/kg; type: ADME, organism-based; conditions: in vivo
[5] = target: 5-hydroxytryptamine receptor 6 (Homo sapiens) (UniProt P50406); assay: Antagonist activity at human recombinant 5HT6 receptor expressed in CHO cells assessed as inhibition of 5HT-induced luciferase activity after 4 hrs by reporter gene assay; type: functional, cell-based
5-hydroxytryptamine receptor 6 (Homo sapiens), sequence (P50406 whole entry): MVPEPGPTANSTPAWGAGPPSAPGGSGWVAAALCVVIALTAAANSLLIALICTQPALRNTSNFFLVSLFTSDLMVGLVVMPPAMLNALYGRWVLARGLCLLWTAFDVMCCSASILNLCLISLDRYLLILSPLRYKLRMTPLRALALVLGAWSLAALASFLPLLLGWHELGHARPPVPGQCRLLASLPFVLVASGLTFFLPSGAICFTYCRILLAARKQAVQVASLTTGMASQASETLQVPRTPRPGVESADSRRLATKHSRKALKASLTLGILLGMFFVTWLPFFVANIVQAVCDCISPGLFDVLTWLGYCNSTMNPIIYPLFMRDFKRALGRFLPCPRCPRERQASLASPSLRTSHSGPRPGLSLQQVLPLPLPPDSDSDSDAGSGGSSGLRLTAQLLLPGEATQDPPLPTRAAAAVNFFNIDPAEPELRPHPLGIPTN

[6] = Drug metabolism in Wistar rat liver microsomes at 2.5 uM at 30 mins by LC-MS/MS analysis; type: ADME, Microsome; conditions: read-out: Drug metabolism
[7] = AUC (0 to 24 hrs) in Wistar rat at 10 mg/kg, iv; type: ADME, organism-based; set-up: time < 24 hr, dose 10 mg/kg, route intravenous; conditions: plasma
[8] = target: Voltage-gated inwardly rectifying potassium channel KCNH2 (Homo sapiens, UniProt Q12809); assay: Displacement of [3H]astemizole from human ERG by microbeta scintillation counting
Voltage-gated inwardly rectifying potassium channel KCNH2, sequence (Q12809 whole entry): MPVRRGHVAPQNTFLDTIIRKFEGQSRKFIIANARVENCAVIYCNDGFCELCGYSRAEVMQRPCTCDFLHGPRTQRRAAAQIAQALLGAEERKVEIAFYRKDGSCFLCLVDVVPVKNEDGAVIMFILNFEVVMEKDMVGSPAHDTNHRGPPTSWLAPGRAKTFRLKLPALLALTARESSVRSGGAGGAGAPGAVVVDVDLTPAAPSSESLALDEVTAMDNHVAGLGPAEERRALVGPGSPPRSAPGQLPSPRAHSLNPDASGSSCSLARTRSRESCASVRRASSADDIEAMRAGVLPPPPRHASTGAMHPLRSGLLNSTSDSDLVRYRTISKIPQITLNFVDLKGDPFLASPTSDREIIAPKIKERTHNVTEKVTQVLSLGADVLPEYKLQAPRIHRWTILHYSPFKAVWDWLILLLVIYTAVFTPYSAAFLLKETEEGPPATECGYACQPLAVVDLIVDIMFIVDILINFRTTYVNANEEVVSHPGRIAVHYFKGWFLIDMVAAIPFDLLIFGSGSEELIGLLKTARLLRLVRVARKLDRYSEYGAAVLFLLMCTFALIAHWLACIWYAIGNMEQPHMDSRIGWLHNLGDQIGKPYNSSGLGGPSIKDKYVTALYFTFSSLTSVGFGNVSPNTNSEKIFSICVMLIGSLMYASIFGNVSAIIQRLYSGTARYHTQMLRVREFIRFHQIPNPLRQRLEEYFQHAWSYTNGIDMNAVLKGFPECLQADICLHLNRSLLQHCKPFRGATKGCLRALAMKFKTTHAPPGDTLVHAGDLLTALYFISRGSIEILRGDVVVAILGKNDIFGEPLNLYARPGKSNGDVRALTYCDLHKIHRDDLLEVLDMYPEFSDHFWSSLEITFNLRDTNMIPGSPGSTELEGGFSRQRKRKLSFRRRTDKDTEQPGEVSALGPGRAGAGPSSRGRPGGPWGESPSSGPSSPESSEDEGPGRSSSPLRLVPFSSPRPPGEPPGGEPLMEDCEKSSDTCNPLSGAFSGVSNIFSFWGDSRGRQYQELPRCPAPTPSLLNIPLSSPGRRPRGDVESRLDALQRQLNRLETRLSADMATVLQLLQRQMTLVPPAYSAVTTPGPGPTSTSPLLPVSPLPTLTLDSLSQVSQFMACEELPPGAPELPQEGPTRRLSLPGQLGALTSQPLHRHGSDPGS

[9] = target: 5-hydroxytryptamine receptor 6 (Homo sapiens) (UniProt P50406); assay: Antagonist activity at human recombinant 5HT6 receptor expressed in CHO cells assessed as inhibition of 5HT-induced luciferase activity after 4 hrs by reporter gene assay relative to control; type: functional, cell-based
D(2) dopamine receptor = D(2) dopamine receptor (Homo sapiens, UniProt P14416); assay: Binding affinity to dopamine D2 receptor
D(2) dopamine receptor, sequence (P14416 whole entry): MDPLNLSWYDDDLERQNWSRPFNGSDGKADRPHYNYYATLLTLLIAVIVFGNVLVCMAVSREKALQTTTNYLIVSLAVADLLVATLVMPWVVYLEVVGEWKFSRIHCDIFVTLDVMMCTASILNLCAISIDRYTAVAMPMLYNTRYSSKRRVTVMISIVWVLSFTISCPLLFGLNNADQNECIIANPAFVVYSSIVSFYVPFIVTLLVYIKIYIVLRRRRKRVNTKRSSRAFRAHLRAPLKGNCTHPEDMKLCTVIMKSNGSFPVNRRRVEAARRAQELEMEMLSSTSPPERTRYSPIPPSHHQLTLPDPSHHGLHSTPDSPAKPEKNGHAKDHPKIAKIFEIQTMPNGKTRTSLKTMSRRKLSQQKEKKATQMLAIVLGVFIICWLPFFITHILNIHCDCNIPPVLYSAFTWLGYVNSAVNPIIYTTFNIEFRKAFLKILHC

[10] = target: T1, 5-hydroxytryptamine receptor 1A (Homo sapiens, UniProt P08908); assay: Binding affinity to 5HT1A receptor
T1 sequence (P08908 whole entry): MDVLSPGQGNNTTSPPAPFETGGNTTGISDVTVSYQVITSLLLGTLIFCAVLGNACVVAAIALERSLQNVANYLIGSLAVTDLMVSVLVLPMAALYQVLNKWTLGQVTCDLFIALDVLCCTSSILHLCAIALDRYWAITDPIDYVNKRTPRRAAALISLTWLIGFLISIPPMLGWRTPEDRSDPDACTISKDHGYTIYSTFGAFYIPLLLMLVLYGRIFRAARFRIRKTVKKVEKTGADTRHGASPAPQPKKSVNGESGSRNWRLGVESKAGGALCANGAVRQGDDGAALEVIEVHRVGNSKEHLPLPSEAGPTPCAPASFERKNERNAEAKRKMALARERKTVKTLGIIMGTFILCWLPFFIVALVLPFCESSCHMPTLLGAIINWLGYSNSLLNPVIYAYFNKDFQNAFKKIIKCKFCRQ

Histamine H1 receptor = Histamine H1 receptor (Homo sapiens, UniProt P35367); assay: Binding affinity to histamine H1 receptor
[11] = target: Sodium-dependent serotonin transporter (Homo sapiens, UniProt P31645); assay: Binding affinity to SERT
Sodium-dependent serotonin transporter, sequence (P31645 whole entry): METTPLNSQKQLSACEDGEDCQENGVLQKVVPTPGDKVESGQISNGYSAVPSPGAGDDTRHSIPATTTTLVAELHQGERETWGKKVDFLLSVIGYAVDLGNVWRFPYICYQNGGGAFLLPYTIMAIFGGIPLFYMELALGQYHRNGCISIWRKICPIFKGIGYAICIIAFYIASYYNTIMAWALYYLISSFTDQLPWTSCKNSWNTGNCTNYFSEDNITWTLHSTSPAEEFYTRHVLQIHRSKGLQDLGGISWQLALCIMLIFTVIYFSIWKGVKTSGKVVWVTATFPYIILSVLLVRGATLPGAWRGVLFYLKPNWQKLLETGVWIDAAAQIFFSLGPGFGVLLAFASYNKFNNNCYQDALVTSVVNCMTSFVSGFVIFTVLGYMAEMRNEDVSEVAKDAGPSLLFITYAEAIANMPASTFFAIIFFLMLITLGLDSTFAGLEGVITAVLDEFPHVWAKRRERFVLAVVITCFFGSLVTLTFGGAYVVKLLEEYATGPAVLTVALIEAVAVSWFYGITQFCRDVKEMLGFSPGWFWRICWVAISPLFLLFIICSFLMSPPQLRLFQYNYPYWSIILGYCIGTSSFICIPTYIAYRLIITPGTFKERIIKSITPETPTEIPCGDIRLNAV

[12] = target: T2, 5-hydroxytryptamine receptor 3A (Homo sapiens, UniProt P46098); assay: Binding affinity to 5HT3 receptor
T2 sequence (P46098 whole entry): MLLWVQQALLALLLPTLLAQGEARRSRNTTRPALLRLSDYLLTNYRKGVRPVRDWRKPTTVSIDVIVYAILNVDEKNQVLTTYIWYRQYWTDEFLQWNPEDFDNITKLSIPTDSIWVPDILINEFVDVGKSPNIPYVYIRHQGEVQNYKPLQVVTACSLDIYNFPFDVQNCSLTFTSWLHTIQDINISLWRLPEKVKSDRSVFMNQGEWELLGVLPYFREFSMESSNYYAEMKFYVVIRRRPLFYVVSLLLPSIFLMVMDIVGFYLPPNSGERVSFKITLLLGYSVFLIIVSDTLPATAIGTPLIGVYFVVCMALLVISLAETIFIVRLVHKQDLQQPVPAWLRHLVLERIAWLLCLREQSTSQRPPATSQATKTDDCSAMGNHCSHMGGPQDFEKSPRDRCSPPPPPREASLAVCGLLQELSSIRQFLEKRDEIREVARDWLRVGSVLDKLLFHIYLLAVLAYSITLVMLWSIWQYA

[13] = Cmax in fasted Wistar rat at 10 mg/kg, po; type: ADME, organism-based; set-up: dose 10 mg/kg, route oral; conditions: in vivo
[14] = target: T3, 5-hydroxytryptamine receptor 2C (Homo sapiens, UniProt P28335); assay: Binding affinity to 5HT2C receptor
T3 sequence (P28335 whole entry): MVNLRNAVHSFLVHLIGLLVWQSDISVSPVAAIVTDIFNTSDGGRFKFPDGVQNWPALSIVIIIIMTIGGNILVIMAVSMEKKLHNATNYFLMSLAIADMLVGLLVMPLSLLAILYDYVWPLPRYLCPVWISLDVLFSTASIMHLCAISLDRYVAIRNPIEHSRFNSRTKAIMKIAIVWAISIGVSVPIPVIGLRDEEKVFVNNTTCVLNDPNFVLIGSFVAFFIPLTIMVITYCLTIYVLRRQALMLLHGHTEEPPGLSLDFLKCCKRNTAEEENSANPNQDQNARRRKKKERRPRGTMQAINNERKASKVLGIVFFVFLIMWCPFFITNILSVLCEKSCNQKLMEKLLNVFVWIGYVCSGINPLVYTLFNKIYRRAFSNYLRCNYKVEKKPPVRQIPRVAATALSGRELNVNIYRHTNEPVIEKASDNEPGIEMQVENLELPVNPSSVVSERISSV

[15] = Apparent volume of distribution in Wistar rat at 10 mg/kg, iv; type: ADME, organism-based; set-up: dose 10 mg/kg, route intravenous; conditions: in vivo, read-out: Vz
[16] = Tmax in fasted Wistar rat at 10 mg/kg, po; type: ADME, organism-based; set-up: dose 10 mg/kg, route oral; conditions: in vivo
[17] = Drug metabolism in human liver microsomes at 2.5 uM at 30 mins by LC-MS/MS analysis; type: ADME, Microsome; conditions: read-out: Drug metabolism
[18] = AUC (0 to 24 hrs) in fasted Wistar rat at 10 mg/kg, po; type: ADME, organism-based; set-up: time < 24 hr, dose 10 mg/kg, route oral; conditions: plasma
Rattus norvegicus [19] = assay: Procognitive activity in Wistar rat assessed as reversal of time delay induced-memory deficit at 1 mg/kg, po by object recognition test; type: functional, organism-based; set-up: dose 1 mg/kg
[20] = Clearance in Wistar rat at 10 mg/kg, iv; type: ADME, organism-based; set-up: dose 10 mg/kg, route intravenous; conditions: in vivo
[21] = target: T4, Alpha-1B adrenergic receptor (Homo sapiens, UniProt P35368); assay: Binding affinity to adrenergic alpha1B receptor
T4 sequence (P35368 whole entry): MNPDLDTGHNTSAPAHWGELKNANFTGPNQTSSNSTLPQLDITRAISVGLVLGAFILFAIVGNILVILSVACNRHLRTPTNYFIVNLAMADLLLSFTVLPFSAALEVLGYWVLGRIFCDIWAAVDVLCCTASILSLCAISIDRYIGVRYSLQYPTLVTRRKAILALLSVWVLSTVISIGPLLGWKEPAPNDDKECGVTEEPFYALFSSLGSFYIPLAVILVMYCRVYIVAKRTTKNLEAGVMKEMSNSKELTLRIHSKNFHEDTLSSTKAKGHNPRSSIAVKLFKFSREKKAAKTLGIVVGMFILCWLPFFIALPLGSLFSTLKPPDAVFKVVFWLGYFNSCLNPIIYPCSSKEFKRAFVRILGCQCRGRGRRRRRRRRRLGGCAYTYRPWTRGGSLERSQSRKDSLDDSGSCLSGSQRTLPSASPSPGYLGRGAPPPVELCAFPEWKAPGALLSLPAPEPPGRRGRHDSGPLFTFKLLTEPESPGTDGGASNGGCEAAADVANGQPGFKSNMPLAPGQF

Cytochrome P450 2D6 = Cytochrome P450 2D6 (Homo sapiens, UniProt P10635); assay: Inhibition of CYP2D6 in human liver microsomes using dextromethorphan as substrate after 10 mins by LC-MS/MS analysis in presence of NADPH
Cytochrome P450 2D6, sequence (P10635 whole entry): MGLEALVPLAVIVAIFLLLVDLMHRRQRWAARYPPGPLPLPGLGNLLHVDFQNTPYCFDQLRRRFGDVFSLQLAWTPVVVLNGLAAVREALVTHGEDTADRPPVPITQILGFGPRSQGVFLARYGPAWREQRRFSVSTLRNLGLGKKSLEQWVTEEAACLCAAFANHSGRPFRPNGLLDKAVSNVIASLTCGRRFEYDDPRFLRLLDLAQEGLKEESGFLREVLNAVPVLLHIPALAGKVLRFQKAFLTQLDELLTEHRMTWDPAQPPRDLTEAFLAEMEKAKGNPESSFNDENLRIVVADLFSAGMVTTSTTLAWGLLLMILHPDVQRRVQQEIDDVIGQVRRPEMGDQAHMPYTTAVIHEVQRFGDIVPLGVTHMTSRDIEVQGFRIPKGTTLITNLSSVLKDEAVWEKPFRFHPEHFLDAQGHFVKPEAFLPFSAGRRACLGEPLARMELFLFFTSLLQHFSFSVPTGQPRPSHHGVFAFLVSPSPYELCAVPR

[22] = target: Sodium-dependent dopamine transporter (Homo sapiens, UniProt Q01959); assay: Binding affinity to dopamine transporter
Rattus norvegicus [23] = assay: Toxicity in po dosed Wistar rat assessed as phospholipidosis in multiple organs administered as repeated dose for 7 days; type: organism-based; conditions: in vivo, 168 h
[24] = Ratio of drug uptake in brain to plasma in Wistar rat at 10 mg/kg, po after 1 hr; type: ADME, organism-based; set-up: dose 10 mg/kg, route oral; conditions: read-out: BPR
[25] = target: 5-hydroxytryptamine receptor 4 (Homo sapiens, UniProt Q13639); assay: Binding affinity to 5HT4 receptor
5-hydroxytryptamine receptor 4, sequence (Q13639 whole entry): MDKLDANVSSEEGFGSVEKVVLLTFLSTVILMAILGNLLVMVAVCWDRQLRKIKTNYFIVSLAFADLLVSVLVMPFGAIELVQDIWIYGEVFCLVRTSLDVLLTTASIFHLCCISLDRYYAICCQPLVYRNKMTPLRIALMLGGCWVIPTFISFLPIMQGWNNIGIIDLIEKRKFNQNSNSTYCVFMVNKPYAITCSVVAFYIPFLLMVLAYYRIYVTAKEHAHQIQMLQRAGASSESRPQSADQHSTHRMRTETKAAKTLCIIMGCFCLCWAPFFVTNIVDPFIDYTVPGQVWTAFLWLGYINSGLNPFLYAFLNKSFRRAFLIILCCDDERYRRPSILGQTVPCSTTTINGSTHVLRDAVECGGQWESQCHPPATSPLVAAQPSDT

[26] = target: 5-hydroxytryptamine receptor 7 (Homo sapiens, UniProt P34969); assay: Binding affinity to 5HT7 receptor
5-hydroxytryptamine receptor 7, sequence (P34969 whole entry): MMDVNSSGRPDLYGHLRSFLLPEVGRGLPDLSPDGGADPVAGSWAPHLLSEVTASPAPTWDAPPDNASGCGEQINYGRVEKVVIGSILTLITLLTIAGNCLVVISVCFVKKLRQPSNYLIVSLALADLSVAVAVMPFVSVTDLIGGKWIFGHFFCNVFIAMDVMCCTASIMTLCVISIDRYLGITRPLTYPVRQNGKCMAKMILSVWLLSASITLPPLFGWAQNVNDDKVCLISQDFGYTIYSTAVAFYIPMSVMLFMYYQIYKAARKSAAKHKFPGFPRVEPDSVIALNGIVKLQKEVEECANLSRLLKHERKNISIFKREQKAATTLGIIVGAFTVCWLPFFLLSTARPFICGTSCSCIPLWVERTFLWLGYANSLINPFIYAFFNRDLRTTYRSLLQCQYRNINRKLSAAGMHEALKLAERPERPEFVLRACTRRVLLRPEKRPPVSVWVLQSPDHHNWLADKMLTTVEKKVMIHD

Cytochrome P450 3A4 = Cytochrome P450 3A4 (Homo sapiens, UniProt P08684); assay: Inhibition of CYP3A4 in human liver microsomes using midazolam as substrate after 5 mins by LC-MS/MS analysis in presence of NADPH
Cytochrome P450 3A4, sequence (P08684 whole entry): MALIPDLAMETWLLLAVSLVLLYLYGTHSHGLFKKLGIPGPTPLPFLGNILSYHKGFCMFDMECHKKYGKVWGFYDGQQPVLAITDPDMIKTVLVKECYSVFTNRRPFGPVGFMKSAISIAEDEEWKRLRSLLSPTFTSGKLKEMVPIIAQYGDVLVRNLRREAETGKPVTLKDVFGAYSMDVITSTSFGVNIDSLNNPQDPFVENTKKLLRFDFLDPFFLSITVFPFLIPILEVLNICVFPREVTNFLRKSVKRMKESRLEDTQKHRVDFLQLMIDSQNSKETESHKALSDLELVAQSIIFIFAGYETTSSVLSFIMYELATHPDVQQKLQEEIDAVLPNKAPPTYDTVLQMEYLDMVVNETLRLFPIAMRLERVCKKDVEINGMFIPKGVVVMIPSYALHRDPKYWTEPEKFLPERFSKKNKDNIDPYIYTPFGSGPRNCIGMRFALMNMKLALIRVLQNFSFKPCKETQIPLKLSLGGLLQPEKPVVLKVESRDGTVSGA

5-hydroxytryptamine receptor 2A, sequence (P28223 whole entry): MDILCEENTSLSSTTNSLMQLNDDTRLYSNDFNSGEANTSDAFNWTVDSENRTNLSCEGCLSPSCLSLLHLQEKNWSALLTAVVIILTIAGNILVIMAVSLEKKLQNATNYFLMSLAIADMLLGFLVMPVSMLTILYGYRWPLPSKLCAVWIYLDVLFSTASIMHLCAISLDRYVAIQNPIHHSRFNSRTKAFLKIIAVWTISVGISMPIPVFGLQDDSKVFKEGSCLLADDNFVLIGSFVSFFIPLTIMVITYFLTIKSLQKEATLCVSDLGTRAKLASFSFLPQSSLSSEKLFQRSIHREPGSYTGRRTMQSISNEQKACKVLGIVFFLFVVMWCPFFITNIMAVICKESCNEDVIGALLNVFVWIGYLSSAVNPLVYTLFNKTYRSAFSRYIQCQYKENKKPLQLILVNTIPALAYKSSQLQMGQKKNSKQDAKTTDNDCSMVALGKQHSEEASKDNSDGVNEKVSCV

Ki [2]: 536 nM
half-life [3]: 2.2 h
bioavailability [4]: 75%
Kb [5]: 0.02 nM
metabolised at 0.5 h, 2.5 µM [6]: 40%
AUC(0-t) at 24 h [7]: 2760 ng·h/mL
Imax [9]: 100%
Ki (D(2) dopamine receptor): 303 nM
EC50 [10]: > 1000 nM
Ki (Histamine H1 receptor): 682 nM
Ki [11]: 1940 nM
IC50 [12]: > 10000 nM
Cmax [13]: 296 ng/mL
Ki [14]: 3120 nM
Vd [15]: 11 L/kg
Tmax [16]: 1.67 h
metabolised at 0.5 h, 2.5 µM [17]: 0%
AUC(0-t) at 24 h [18]: 2090 ng·h/mL
clearance [20]: 59 mL/min/kg
Ki [21]: 955 nM
IC50 (Cytochrome P450 2D6): 14700 nM
Ki [22]: 2900 nM
Kp at 1 h [24]: 3.8
EC50 [25]: > 10000 nM
Ki [26]: 6370 nM
IC50 (Cytochrome P450 3A4): 6460 nM
Structure (SMILES): COc1ccc(S(=O)(=O)n2cc(C)c3cc(Cl)ccc32)cc1NC1CCN(C)CC1
Activity (Rattus norvegicus [1]): Active
Ki [8]: 800 nM
Activity (Rattus norvegicus [19]): Active
Activity (Rattus norvegicus [23]): Toxic

Reference: ChEMBL document CHEMBL2176989, “Design, synthesis, and pharmacological evaluation of piperidin-4-yl amino aryl sulfonamides: novel, potent, selective, orally active, and brain penetrant 5-HT₆ receptor antagonists” (J Med Chem, 2012)
